Where two headings read alike, the source gives them in different places.

Series [1] deals with SLC-Wistar female rats. The series can be described thus: Analgesic activity c: Randall and Selitto method. To be noted: 2 h, read-out: Analgesic Activity c ED50. Type of series: in vivo, rat. The method, then: c. Randall and Selitto method A test compound is orally given SLC-Wistar female rats (150-170 g). Five minutes later 0.1 ml of 20% yeast suspension is subcutaneously injected into the plantar tissue of the foot.

A short description of series [2]: Acute toxicity, oral, mice (LD50). To be noted: in vivo, mouse, mortality at 72 hours, P = presumption. As to the method: a. DS male mice (20-25 g) are orally administered a suspension of test compound with gum arabic. The mortality at 72 hours is determined and the LD50 is calculated.
The test system of a further series is JCL-Wistar female rats. As to the kind of experiment: Anti-inflammatory activity: carrageenin foot edema. Conditions: rat, oral, 50 mg/kg, 1.0% carrageenin, swelling 3 hours later. Type of series: in vivo. The method, then:
A 0.9% saline solution (0.05 ml) containing 1.0% carrageenin is used as phlogistic agent. After 30 minutes JCL-Wistar female rats (180-200 g) are orally administered a test compound, the phlogistic agent is injected subcutaneously into the plantar of the foots of the rats. The volume of swelling is measured 3 hours later and anti-edema activity is determined by calculating the percentage ratio of the edematous volume of medicated foot of that of non-medicated foot.
Background: The carrageenan paw model is a standard test of acute inflammation.

The test system of another series is DS male mice. As to the kind of experiment: Analgesic activity a: acetic acid writhing method. The class given is in vivo, mouse. To be noted: read-out: Analgesic Activity a ED50. The method, then: a. Acetic acid writing method
DS male mice (20-23 g) are treated with an intraperitoneal injection of 0.1 ml/10 g of 0.6% acetic acid 30 minutes after oral administration of a test compound. The number of times of writhing for 10 minutes is counted and ED50 is calculated.

The nature of series [3]: Acute toxicity, oral, rats (LD50). Conditions: in vivo, rat, mortality on the 15th day. The method, then: b. JCL-Wistar female rats (180-220 g) are orally administered a suspension of test compound with gum arabic. The mortality on the 15th day is determined and the LD50 is calculated.
Series [4] has as its system SLC-Wistar female rats. As to the kind of experiment: Analgesic activity b: foot-licking method. Type of series: in vivo, rat. Conditions: read-out: Analgesic Activity b ED50.
The mark [5] stands for this setting: rat, oral, 5 min before 20% yeast s.c. in foot, pain threshold at 120 minutes.
Where [6] appears, read: mouse, oral, 30 min before 0.6% acetic acid i.p., writhing counted for 10 minutes.
Setting [7] is: rat, oral, 30 min before 3.7% formaldehyde s.c. in hind-paw, foot-licking for 50 minutes.

Turning to `CNCC1CCSc2[nH]c3ccccc3c21` (stereo not shown) [Comp. 1, 4-Methylaminomethyl-2,3,4,9-tetrahydrothiopyrano[2,3-b]indole], the 50% effective dose (ED50) in the series with SLC-Wistar female rats [1] (setting [5]) was determined as 8.4 mg/kg; with DS male mice (setting [6]) it was 4.2 mg/kg; with SLC-Wistar female rats [4] (setting [7]) it was 1.6 mg/kg. The compound further came in with an LD50 at 72 h in series [2] of 409 mg/kg. The “Anti-inflammatory Activity” value with JCL-Wistar female rats amounted to 66%. In series [3], this compound gave a 50% lethal dose (LD50) at 360 h of 295 mg/kg.
Take `CNCC1CCSc2c1c1ccccc1n2C` (stereo not shown) [Comp. 2, 9-Methyl-4-methylaminomethyl-2,3,4,9-tetrahydrothiopyrano[2,3-b]indole]: the 50% effective dose (ED50) worked out at 17.8 mg/kg in the series with SLC-Wistar female rats [1] (setting [5]), 21.2 mg/kg in the series on DS male mice (setting [6]) and 0.54 mg/kg in the series with SLC-Wistar female rats [4] (setting [7]). The same compound gave an LD50 at 72 h in series [2] of roughly 750 mg/kg. Further, in the series on JCL-Wistar female rats, the “Anti-inflammatory Activity” value is reported as 40%.
Take `CNCC1CCS(=O)(=O)c2[nH]c3ccccc3c21` (stereo not shown) [Comp. 3, 4-Methylaminomethyl-2,3,4,9-tetrahydrothiopyrano[2,3-b]indole S-dioxide]: the ED50 in the series on SLC-Wistar female rats [1] (setting [5]) was 19.1 mg/kg; with DS male mice (setting [6]), 11.7 mg/kg; in the series on SLC-Wistar female rats [4] (setting [7]) it was 2.9 mg/kg. Further, the LD50 at 72 h in series [2] was roughly 750 mg/kg. Also, in the series on JCL-Wistar female rats, the “Anti-inflammatory Activity” value was found to be 25%.
The corresponding values for `CC(=O)n1c2c(c3ccccc31)C(CN(C)C)CCS2` (stereo not shown) [Comp. 4] are 15.9 mg/kg, 21 mg/kg, 4.7 mg/kg, roughly 175 mg/kg and 44%.
In the case of `COc1ccc2c(c1)c(CC(=O)O)c(C)n2C(=O)c1ccc(Cl)cc1` [Idomethacin, reference compound], the median effective dose (ED50) with SLC-Wistar female rats [1] (po) was determined as 14 mg/kg; in the series with DS male mice (Mus musculus, po), 7 mg/kg; in the series on SLC-Wistar female rats [4] (Rattus norvegicus, po), 65 mg/kg. Moreover, the median lethal dose (LD50) at 72 h in series [2] was determined as 17 mg/kg. The compound also showed an LD50 at 360 h in series [3] of 14 mg/kg.
Regarding `COc1cc(C)nc(-n2nc(C)cc2OC)n1` [Mepirizole, reference compound], the median effective dose (ED50) in the series with SLC-Wistar female rats [1] (setting [5]) was found to be 130 mg/kg; in the series with DS male mice (setting [6]), 110 mg/kg; in the series on SLC-Wistar female rats [4] (setting [7]), 13 mg/kg. The 50% lethal dose (LD50) at 72 h in series [2] came to 1150 mg/kg. This compound also had a 50% lethal dose (LD50) at 360 h in series [3] of 552 mg/kg.

As usually defined, the ED50 is the dose at which the effect has come halfway, by size or by number of responders. Broadly, the LD50 is the dose at which mortality reaches 50%.

(Values after patent US4256640A, “Tetrahydrothiopyrano[2,3-b]indole derivatives” (Shionogi & Co., Ltd., priority 1978, dated 1981).)
